Measured values from article PMC6017698 (Molecules : A Journal of Synthetic Chemistry and Natural …, 2018).
Like-named read-outs stand apart in the source and are kept apart here.

Legend:
[1] = commercial drugs used for assay validation; cited from earlier work
[2] = for PAMPA-BBB prediction of BBB permeation: class from Pe value
Procedure: (§1) The brain permeability (Pe) of the target compounds was determined in vitro using the parallel artificial membrane permeation assay for blood-brain barrier penetration described by Di et al. [41], employing a lipid extract of porcine brain membrane in a mixture of PBS/EtOH 70:30.

in vitro = conditions: PAMPA
Procedure: as §1

human serum BChE = human serum BChE (Homo sapiens, UniProt P06276); test: biochemical
human recombinant AChE = target: T1, human recombinant AChE (Homo sapiens, UniProt P22303); test: biochemical; type: biochemical; conditions: for IC50: human recombinant AChE; for selectivity for hAChE over hBChE inhibition: ratio of hBChE and hAChE IC50; for fold more potent hAChE inhibitor than pyridostigmine: relative to pyridostigmine
T1 construct: purchased Sigma, Milan, Italy
T1 sequence (P22303 32-614): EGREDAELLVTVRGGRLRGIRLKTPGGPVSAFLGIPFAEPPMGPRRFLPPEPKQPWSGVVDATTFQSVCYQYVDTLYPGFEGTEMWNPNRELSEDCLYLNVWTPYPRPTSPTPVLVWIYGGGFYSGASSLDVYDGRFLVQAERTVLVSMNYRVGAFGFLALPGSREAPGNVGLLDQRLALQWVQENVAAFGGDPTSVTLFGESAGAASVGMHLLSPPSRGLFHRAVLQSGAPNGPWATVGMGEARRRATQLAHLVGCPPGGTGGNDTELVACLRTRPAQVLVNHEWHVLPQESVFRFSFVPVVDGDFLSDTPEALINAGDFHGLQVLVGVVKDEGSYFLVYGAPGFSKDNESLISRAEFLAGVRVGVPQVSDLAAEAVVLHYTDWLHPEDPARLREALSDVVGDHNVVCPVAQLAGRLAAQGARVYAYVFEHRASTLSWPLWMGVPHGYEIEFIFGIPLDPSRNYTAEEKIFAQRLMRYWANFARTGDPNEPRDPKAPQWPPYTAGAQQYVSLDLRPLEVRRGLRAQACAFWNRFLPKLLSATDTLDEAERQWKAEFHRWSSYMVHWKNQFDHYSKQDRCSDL

[3] = mean ± SEM of at least three experiments, each in duplicate, read-out: hBChE IC50
[4] = mean ± SEM of at least three experiments, each in duplicate, read-out: hAChE IC50

Chain of human serum BChE (P06276 29-602): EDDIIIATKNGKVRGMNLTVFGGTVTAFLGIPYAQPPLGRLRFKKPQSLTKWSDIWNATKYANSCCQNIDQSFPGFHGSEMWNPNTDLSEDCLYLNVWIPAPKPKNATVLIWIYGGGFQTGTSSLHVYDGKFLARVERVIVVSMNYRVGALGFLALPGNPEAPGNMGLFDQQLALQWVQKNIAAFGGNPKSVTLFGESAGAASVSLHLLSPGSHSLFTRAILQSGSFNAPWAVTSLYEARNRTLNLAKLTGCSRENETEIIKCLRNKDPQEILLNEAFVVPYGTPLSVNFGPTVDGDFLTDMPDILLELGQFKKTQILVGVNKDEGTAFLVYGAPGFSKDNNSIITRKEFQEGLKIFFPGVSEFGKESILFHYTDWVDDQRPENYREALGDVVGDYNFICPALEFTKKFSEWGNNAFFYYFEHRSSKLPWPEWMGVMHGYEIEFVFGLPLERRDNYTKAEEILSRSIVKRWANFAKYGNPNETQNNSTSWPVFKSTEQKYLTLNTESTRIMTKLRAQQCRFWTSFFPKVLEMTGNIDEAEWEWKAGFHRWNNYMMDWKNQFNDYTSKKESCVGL

SMILES	PAMPA-BBB prediction of BBB permeation [2]	Papp (in vitro; pig)	IC50 (human serum BChE; [3])	IC50 (human recombinant AChE; [4])	other results
CN(C)CCCN1c2ccccc2Sc2ccccc21 [Promazine]					Reported Pe [1]: 8.8 10^−6 cm s^−1
CCn1cc(C(=O)O)c(=O)c2cc(F)c(N3CCNCC3)cc21 [Norfloxazin, reference compound]					Experimental Pe ([2]; commercial drugs used for assay validation, mean ± SD of three independent experiments): 0.9 ± 0.1 10^−6 cm s^−1
Nc1c2c(nc3cc(Cl)ccc13)CCCC2 [6-chlorotacrine, reference compound]	CNS+ (High BBB permeation (CNS+) is expected for compounds with Pe > 5.19)	19.8 ± 0.4 ×10⁻⁶ cm/s			
CN1C(C(=O)Nc2ccccn2)=C(O)c2ccccc2S1(=O)=O [Piroxicam]					Reported Pe [1]: 2.5 10^−6 cm s^−1
OCCc1cn(CCNc2c3c(nc4cc(Cl)ccc24)CCCC3)nn1 [Compound 10, 2-{1-[2-(6-Chloro-1,2,3,4-tetrahydroacridin-9-ylamino)ethyl]-1H-1,2,3-triazol-4-yl}ethanol]	CNS− (low BBB permeation (CNS−) is expected for compounds with Pe < 2.07)	0.02 ± 0.001 ×10⁻⁶ cm/s	3250 ± 170 nM	200 ± 10 nM	selectivity for hAChE over hBChE inhibition (human recombinant AChE): 16; fold more potent hAChE inhibitor than pyridostigmine (human recombinant AChE): 7 fold
COc1cc(CNC(=O)Cc2cn(CCNc3c4c(nc5cc(Cl)ccc35)CCCC4)nn2)ccc1O [Compound 16, 2-{1-[2-(6-Chloro-1,2,3,4-tetrahydroacridin-9-ylamino)ethyl]-1H-1,2,3-triazol-4-yl}-N-[4-(hydroxy)-3-methoxybenzyl]acetamide]	CNS±	2.97 ± 0.61 ×10⁻⁶ cm/s	290 ± 10 nM	10 nM	IC50 (human recombinant AChE; values given in nM (table footnotes, text), read-out: IC50 hAChE): 7.18 nM; selectivity for hAChE over hBChE inhibition (human recombinant AChE): 40; fold more potent hAChE inhibitor than pyridostigmine (human recombinant AChE): 192 fold
C[n+]1c2c(c(N)c3ccc(Cl)cc31)CCCC2.[I-] [Compound 5, 9-Amino-6-chloro-1,2,3,4-tetrahydro-10-methylacridin-10-ium iodide]	CNS− (low BBB permeation (CNS−) is expected for compounds with Pe < 2.07)		22300 ± 1500 nM	2450 ± 280 nM	Papp (in vitro): 1.2 ± 0.8 ×10⁻⁶ cm/s
COc1cc(CNC(=O)Cc2cn(CCNc3c4c(nc5ccccc35)CCCC4)nn2)ccc1O [Compound 15, N-[4-(hydroxy)-3-methoxybenzyl]-2-{1-[2-(1,2,3,4-tetrahydroacridin-9-ylamino)ethyl]-1H-1,2,3-triazol-4-yl}acetamide]	CNS− (low BBB permeation (CNS−) is expected for compounds with Pe < 2.07)	0.03 ± 0.001 ×10⁻⁶ cm/s	50 nM	250 ± 10 nM	IC50 (human serum BChE; values given in nM (table footnotes), read-out: IC50 hBChE): 54.8 nM
CC1=CC2Cc3c(c(N)c4ccc(Cl)cc4[n+]3C)C(C1)C2.[I-] (centres unmarked) [Compound 6, 12-Amino-3-chloro-6,7,10,11-tetrahydro-5,9-dimethyl-7,11-methanocycloocta[b]quinolin-5-ium iodide]	CNS+ (High BBB permeation (CNS+) is expected for compounds with Pe > 5.19)				PAMPA-BBB Pe ([2]; PBS/EtOH 70:30, mean of three independent experiments ± SD): 10.90 10^−6 cm/s; Papp (in vitro): 10.9 ± 1.5 ×10⁻⁶ cm/s
OCCc1cn(CCNc2c3c(nc4ccccc24)CCCC3)nn1 [Compound 9, 2-{1-[2-(1,2,3,4-Tetrahydroacridin-9-ylamino)ethyl]-1H-1,2,3-triazol-4-yl}ethanol]	CNS− (low BBB permeation (CNS−) is expected for compounds with Pe < 2.07)	0.03 ± 0.001 ×10⁻⁶ cm/s	170 ± 10 nM	1730 ± 120 nM	
C[n+]1c2c(c(N)c3ccccc31)CCCC2.[I-] [Compound 4, 9-Amino-1,2,3,4-tetrahydro-10-methylacridin-10-ium iodide]	CNS− (low BBB permeation (CNS−) is expected for compounds with Pe < 2.07)		2850 ± 190 nM	12000 ± 1000 nM	Papp (in vitro): 1.7 ± 1.5 ×10⁻⁶ cm/s
